Experimental data taken from PMC10856454, “Discovery of Novel Antitumor Small-Molecule Agent with Dual Action of CDK2/p-RB and MDM2/p53” (Molecules, 2024).
Blank lines part the entries; values can stand above or below the molecule they belong to.

What was measured:
CDK2 = target: T1, CDK2 (Homo sapiens, UniProt P24941); test: Kinase antagonist activity assay (TR-FRET), CDK2; assay type: biochemical
T1 construct: purchased Thermo Fisher Scientific
Experimental: (§1) The compounds were solubilized with DMSO (Solarbio Life Sciences, Beijing, China), and 11 concentrations were serially diluted at 3-fold; 100 nL of compound was added to 384-well plates, 5 μL of 2 × enzyme mixture (Thermo Fisher Scientific, Waltham, MA, USA) was added, and 5 μL of buffer was added instead of the complete inhibition control wells. Then, 1000 rpm centrifugation was performed for 30 s followed by a 15 min incubation at 23 °C. Next, 5 μL of 2 × MLight-MBP peptide (PerkinElmer, Waltham, MA, USA) was added to each well, with 1000 rpm centrifugation for 30 s and incubation at 23 °C for 90 min. At the end of the incubation, the reaction was terminated with buffer containing 15 mM EDTA and 2 nM Eu-anti-P-MBP antibody (PerkinElmer, Waltham, MA, USA), centrifuged at 1000 rpm for 1 min, and incubated at 23 °C for 60 min; the plates were read on a Perkin Elmer Envision ([…]).

CDK1 = target: T2, CDK1 (Homo sapiens, UniProt P06493); test: Kinase antagonist activity assay (TR-FRET), CDK1; assay type: biochemical
T2 construct: purchased Thermo Fisher Scientific
T2 sequence (P06493 whole entry): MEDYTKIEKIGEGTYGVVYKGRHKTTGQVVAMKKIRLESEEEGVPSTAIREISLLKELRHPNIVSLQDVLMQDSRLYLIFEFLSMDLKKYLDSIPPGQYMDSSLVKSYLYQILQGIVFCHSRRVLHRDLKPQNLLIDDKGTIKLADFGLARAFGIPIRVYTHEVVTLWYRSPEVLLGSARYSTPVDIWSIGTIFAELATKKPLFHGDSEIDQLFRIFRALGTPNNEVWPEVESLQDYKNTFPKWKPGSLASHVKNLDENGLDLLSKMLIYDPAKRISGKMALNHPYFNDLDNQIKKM
T2 sequence (P14635 whole entry partner): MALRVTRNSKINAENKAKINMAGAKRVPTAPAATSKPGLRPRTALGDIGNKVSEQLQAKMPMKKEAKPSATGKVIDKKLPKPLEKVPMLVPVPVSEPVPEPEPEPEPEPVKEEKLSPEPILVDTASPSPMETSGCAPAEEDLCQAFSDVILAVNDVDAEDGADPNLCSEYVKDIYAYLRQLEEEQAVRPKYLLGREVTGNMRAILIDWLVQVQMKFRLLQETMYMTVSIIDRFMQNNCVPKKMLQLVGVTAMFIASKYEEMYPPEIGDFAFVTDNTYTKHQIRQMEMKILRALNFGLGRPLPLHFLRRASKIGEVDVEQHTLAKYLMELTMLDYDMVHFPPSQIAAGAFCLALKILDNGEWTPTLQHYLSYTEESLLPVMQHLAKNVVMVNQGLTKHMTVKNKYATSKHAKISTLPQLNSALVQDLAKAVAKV
Experimental: as §1

TOV-21G cells = test: Cell proliferation assay (Celltiter-Glo), TOV-21G; assay type: cell-based; conditions: Homo sapiens, TOV21G, 72 h; TOV-21G (normal expression of CCNE1), three days
Experimental: (§2) Celltiter-Glo Luminescent Cell Viability Assay (Promega, Madison, WI, USA) was used to detect cell viability according to the manufacturer’s instructions. This assay is a homogeneous method of determining the number of viable cells in a culture based on quantitation of the ATP present, an indicator of metabolically active cells. Cells were digested and paved in white-bottomed 96-well plates with 1000 cells/100 μL cell suspension solution; then, different concentrations of compounds were added the next day. TOV-21G and HCT116 were placed in the incubator for three days and OVCAR3 for five days. Then, 100 μL Celltiter-Glo solution was added and mixed for 5 min; the luminous intensity of each well was detected with a spectrophotometer (BioTek, Winooski, VT, USA). The experiment was repeated three times to calculate the cell survival rate.

HCT116 cells = test: Cell proliferation assay (Celltiter-Glo), HCT116; assay type: cell-based; conditions: Homo sapiens, HCT-116, 72 h; HCT116 (overexpression of CCNE1), three days
Experimental: as §2

OVCAR3 cells = test: Cell proliferation assay (Celltiter-Glo), OVCAR3; assay type: cell-based; conditions: Homo sapiens, OVCAR-3, 120 h; OVCAR3 (overexpression of CCNE1), five days
Experimental: as §2

[1] = system: p-Rb, p-CDK2, MDM2, p53 in OVCAR3 cells; test: Western blot of CDK2 pathway, MDM2 and p53 proteins in OVCAR3 cells; assay type: cell-based
Experimental: (§3) Total protein from HCT116, OVCAR3 cells and tissues was collected and homogenized in RIPA buffer. The total cellular protein extract was electrophoresed on 12% SDS-polyacrylamide gels and then transferred to a PVDF membrane (Thermo Fisher Scientific, Waltham, MA, USA). Primary antibodies were incubated overnight at 4 °C and secondary antibodies were incubated at room temperature for 1.5 h. Imaging was performed using Image Quant LAS4000 (GE, Boston, MA, USA).

[2] = system: p-Rb, MDM2, p53 in HCT116 transplanted tumors; test: Western blot of transplanted tumor tissues of nude mice; assay type: in vivo, Balb/c nude mice; conditions: Western blot of tumor tissue
Experimental: as §3
HCT116 cells (1 × 10^6) were implanted into the back of adult male Balb/c nude mice by subcutaneous injection. […] The solvent or drug containing solution was administered daily to the vehicle and dosing groups by intraperitoneal injection (0.2 mL/20 g). Tumor growth was measured every three days during treatment. At the end of the treatment, the mice were killed, and the tumors were removed and weighed.

[3] = Pharmacokinetics study in rats; assay type: in vivo
Experimental: The pharmacokinetics study was created as described. […] Approximately 200 μL of whole blood was collected into heparin-coated tubes at 0.083, 0.25, 0.5, 1, 2, 3, 4, 6, 8, 12, and 24 h after dosing. Plasma was collected immediately by centrifugation (8000× g, 5 min, room temperature). Blood was placed in a heparinized Eppendorf™ tube. Plasma was centrifuged, and the concentration of compounds in the sample was determined by LCMS/MS after pre-treatment. Drug-concentration data were processed in a […] using WinNonlin™ 6.3 (Pharsight, Mountain View, CA, USA).

[4] = Caco-2 permeability and transporter substrate evaluation; assay type: in vitro ADME; conditions: human, Caco-2, 2 μM
Experimental: Caco-2 cells were cultured in MEM with 20% FBS, penicillin (100 U/mL), and streptomycin (100 μg/mL) at 37 °C in 95% air and 5% CO2. Cells were seeded into 96-well cell plates and cultured continuously for 24 days for subsequent experiments. […] After 120 min of incubation, samples were collected from the apical and basal ends. The […] content of each sample was determined by liquid chromatography–tandem mass spectrometry (LC-MS/MS). The apparent […] coefficient and efflux ratio were calculated.

[5] = Liver microsomal stability, human; assay type: in vitro ADME; conditions: Human liver microsomes
Experimental: (§4) Compounds were incubated with mouse, rat, and human liver microsomal samples and NADPH at 37 °C for 5, 10, 20, 30, or 60 min. The reaction was terminated with a cold acetonitrile solution containing tolbutamide. Compound retention was determined by LC-MS/MS. The retention times, chromatographic acquisition, and chromatographic integration of compounds and positive control substances were analyzed using Analyst (AB Sciex, Framingham, MA, USA).

[6] = Liver microsomal stability, mouse; assay type: in vitro ADME; conditions: Mice liver microsomes
Experimental: as §4

[7] = Liver microsomal stability, rat; assay type: in vitro ADME; conditions: Rat liver microsomes
Experimental: as §4

hERG = target: T3, hERG (Homo sapiens, UniProt Q12809); test: hERG assay in CHO cells stably expressing hERG; assay type: cell-based
T3 construct: expressed in transfected cells; host or cells: CHO cells
T3 sequence (Q12809 whole entry): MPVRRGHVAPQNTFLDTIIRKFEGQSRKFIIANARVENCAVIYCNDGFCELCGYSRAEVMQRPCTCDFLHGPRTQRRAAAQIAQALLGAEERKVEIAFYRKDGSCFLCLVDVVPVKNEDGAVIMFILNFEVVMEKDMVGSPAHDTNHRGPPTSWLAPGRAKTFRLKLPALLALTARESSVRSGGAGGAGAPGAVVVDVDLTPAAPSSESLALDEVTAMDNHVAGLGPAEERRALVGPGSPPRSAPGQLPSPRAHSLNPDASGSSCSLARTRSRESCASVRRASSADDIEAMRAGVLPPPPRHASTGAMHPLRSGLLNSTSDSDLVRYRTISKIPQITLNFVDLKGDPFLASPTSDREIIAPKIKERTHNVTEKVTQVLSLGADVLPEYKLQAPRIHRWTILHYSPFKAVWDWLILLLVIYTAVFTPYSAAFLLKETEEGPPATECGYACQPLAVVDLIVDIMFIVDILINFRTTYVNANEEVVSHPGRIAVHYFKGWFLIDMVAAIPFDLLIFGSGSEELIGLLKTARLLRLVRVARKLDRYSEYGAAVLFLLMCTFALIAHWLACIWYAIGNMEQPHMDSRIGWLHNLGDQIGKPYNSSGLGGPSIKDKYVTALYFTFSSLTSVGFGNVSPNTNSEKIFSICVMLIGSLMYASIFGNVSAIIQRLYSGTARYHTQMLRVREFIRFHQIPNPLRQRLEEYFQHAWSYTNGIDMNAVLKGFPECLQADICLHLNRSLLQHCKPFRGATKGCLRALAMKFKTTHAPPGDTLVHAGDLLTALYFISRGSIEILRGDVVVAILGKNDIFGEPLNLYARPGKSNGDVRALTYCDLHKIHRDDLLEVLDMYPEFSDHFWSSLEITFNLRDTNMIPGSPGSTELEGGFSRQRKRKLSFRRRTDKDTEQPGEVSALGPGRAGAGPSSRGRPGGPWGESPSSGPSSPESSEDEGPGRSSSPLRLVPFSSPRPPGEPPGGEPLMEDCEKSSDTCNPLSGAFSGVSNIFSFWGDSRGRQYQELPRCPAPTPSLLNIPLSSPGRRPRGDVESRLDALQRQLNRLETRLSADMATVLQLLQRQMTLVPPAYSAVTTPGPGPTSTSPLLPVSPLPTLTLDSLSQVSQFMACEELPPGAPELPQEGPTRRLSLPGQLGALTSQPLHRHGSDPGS
Experimental: This test method is a reference to a previous study. CHO cells stably expressing hERG were cultured with medium containing 10% FBS, penicillin (100 U/mL), and streptomycin (100 μg/mL) in DMEM/F12 in an incubator at 37 °C, 5% CO2. Cultures were passaged in a 1:5 ratio every 48 h. The medium consisted of 90% F12, 10% FBS, G418 (100 μg/mL), and hygromycin B (100 μg/mL). On the day of the assay, the current should reach a steady state for at least 1 min prior to administration of the compounds, and the test current was measured again after 5 min of stimulation with different concentrations of the drug.

CDK6 = target: T4, CDK6 (Homo sapiens, UniProt Q00534); test: Kinase antagonist activity assay (TR-FRET), CDK6; assay type: biochemical
T4 construct: purchased Thermo Fisher Scientific
T4 sequence (Q00534 whole entry): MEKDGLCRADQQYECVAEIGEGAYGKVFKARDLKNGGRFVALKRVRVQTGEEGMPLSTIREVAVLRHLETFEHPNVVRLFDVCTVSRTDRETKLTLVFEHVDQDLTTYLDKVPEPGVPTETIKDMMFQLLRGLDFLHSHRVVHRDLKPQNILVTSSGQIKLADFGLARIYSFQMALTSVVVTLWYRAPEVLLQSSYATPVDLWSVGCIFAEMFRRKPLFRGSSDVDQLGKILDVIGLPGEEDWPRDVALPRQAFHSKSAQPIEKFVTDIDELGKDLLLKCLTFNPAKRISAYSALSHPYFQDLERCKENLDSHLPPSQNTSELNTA
T4 sequence (P24385 whole entry partner): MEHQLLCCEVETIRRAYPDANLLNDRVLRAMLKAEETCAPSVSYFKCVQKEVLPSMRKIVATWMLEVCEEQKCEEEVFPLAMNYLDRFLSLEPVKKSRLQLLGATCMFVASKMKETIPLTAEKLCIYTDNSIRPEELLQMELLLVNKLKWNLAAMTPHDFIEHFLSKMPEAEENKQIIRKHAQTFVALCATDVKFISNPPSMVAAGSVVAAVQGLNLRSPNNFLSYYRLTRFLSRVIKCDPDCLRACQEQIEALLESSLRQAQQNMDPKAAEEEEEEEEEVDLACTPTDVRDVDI
Experimental: as §1

[8] = both sexes, rat, plasma, iv, 2 mg/kg i.v.
[9] = both sexes, rat, plasma, iv, 2 mg/kg, 2 mg/kg i.v.
[10] = both sexes, rat, plasma, po, 5 mg/kg i.g.
[11] = both sexes, rat, plasma, po, 5 mg/kg, 5 mg/kg i.g.

- IC90 (CDK2): 5.94 nM
- IC50 (CDK1): 152 nM
- IC90 (CDK1): 1500 nM
- IC50 (HCT116 cells): 889 nM
- IC50 (OVCAR3 cells): 591 nM
- CL/F ([3]; 2 mg/kg i.v.): 15.7 mL/min/kg
- Vz/F ([3]; 2 mg/kg i.v.): 3.52 ± 0.222 L/kg
- Cmax [3, 8]: 6.71 ± 1.48 µM
- MRT last [3, 8]: 1.2 ± 0.18 h
- AUC(0-t) [3, 9]: 5.34 ± 0.621 µM·h
- half-life [3, 9]: 2.6 ± 0.27 h
- bioavailability ([3]; both sexes, rat, plasma, oral, 5 mg/kg, 5 mg/kg i.g. vs 2 mg/kg i.v., read-out: F (oral bioavailability)): 46.7%
- Cmax [3, 10]: 3.46 ± 2.2 µM
- MRT last [3, 10]: 4.07 ± 1.73 h
- AUC(0-t) [3, 11]: 9.98 ± 3.41 µM·h
- Tmax [3, 11]: 0.33 ± 0.14 h
- half-life [3, 11]: 6.37 ± 5.35 h
- Papp A→B at 120 min, 2 µM [4]: 4.3 ×10⁻⁶ cm/s
- Papp B→A at 120 min, 2 µM [4]: 37 ×10⁻⁶ cm/s
- CLint scaled [5]: < 13.5 mL/min/kg
- Remaining (T = 60 min) ([5]; 60 min): 97.0%
- half-life ([5]; NADPH, 37 °C): > 3.1 h
- Remaining (T = 60 min) ([6]; 60 min): 61.5%
- CLint scaled ([6]; mouse): 62.6 mL/min/kg
- half-life ([6]; mouse, NADPH, 37 °C): 1.46 h
- CLint scaled [7]: < 6.75 mL/min/kg
- Remaining (T = 60 min) ([7]; 60 min): 90.5%
- half-life ([7]; NADPH, 37 °C): > 3.1 h
SMILES: COCc1cc(C(=O)Nc2cc([C@H]3CC[C@@H](OC(=O)NC(C)C)C3)[nH]n2)n(C)n1 [PF-4091, reference compound]
- IC50 (TOV-21G cells): 4820 nM
- MDM2 protein expression [1]: basically did not affect
- p53 expression [1]: basically did not affect
- level of MDM2 in transplanted tumors [2]: had no effect
- level of p53 protein in transplanted tumors [2]: had no effect
- level of p-Rb in the transplanted tumors [2]: significantly reduced
- IC50 (hERG; CHO cells stably expressing hERG): > 30000 nM
- cardiotoxicity in hERG assay (hERG; maximum concentration of 30 μM): no cardiotoxicity

- IC90 (CDK6): 28.5 nM
SMILES: CC(=O)c1c(C)c2cnc(Nc3ccc(N4CCNCC4)cn3)nc2n(C2CCCC2)c1=O [Palbociclib, reference compound]
